One experiment has as its system E coli. The experiment is classed as cell-based, Escherichia coli.
The test system of the next experiment is S. aureus. Put plainly: MIC of triclosan for inoculum and for colonies growing inside zones or under discs. The note with it: Staphylococcus aureus. The experiment is classed as cell-based. How it is done:
(§1) Wound guards (e.g. for protection of catheter or external fixation pin exit sites) in the form of discs of silicone elastomer of 2.5 cm diameter and 3.5 mm thickness were impregnated with either rifampin+clindamycin (A), rifampin+clindamycin+triclosan (B) or triclosan alone (C). The discs were then sterilised by autoclaving, and placed on agar plates seeded with the gram-positive bacteria Staphylococcus aureus. After overnight incubation, inhibition zones were measured and the discs were transferred to a further seeded plate, and this process repeated until no zones were seen. Any bacterial colonies growing inside the inhibition zones or under the discs were tested for minimal inhibitory concentration (MIC) to triclosan and their identities with the original inoculum determined by pulse field gel electrophoresis.

In the next experiment the test system is E. coli. The description is as above. It is filed as cell-based. The note with it: Escherichia coli. How it is done: as §1, with “electrophoresis. The results were as follows:” for “electrophoresis.”
The simulation was repeated using plates seeded with the gram-negative bacterium E coli.

Setting [1] is: read-out: MIC of triclosan for resistant mutants.

Like-named read-outs stand apart in the source and are kept apart here.

From patent US10500388B2 (priority 2005, dated 2019) come the findings set out here.

Description for E coli: A suitable method is the serial plate transfer test (SPTT) (Bayston R. Grove N, Siegel J, Lawellin D, Barsham S. Prevention of hydrocephalus shunt catheter colonisation in vitro by impregnation with antimicrobials. J Neurol Neurosurg Psychiatr 1989, 52: 605-689) which allows for a portion of an antimicrobial material, typically a catheter segment of approximately 5 mm length, to be placed on the surface of an agar plate seeded with susceptible index bacteria in such a way that the cut ends of the test catheter are not in contact with the eluting surface, by means of a well or other arrangement.
Wound guards (e.g. for protection of catheter or external fixation pin exit sites) in the form of discs of silicone elastomer of 2.5 cm diameter and 3.5 mm thickness were impregnated with either rifampin+clindamycin (A), rifampin+clindamycin+triclosan (B) or triclosan alone (C). […] After overnight incubation, inhibition zones were measured and the discs were transferred to a further seeded plate, and this process repeated until no zones were seen. Any bacterial colonies growing inside the inhibition zones or under the discs were tested for minimal inhibitory concentration (MIC) to triclosan and their identities with the original inoculum determined by pulse field gel electrophoresis. […]

In the case of `CCC[C@@H]1C[C@@H](C(=O)N[C@@H]([C@H]2O[C@H](SC)[C@H](O)[C@@H](O)[C@H]2O)[C@H](C)Cl)N(C)C1` [clindamycin], the “Activity against E. coli” value with E coli is recorded as “no activity”.
For the compound `CO[C@H]1/C=C/O[C@@]2(C)Oc3c(C)c(O)c4c(O)c(c(/C=N/N5CCN(C)CC5)c(O)c4c3C2=O)NC(=O)/C(C)=C\C=C\[C@H](C)[C@H](O)[C@@H](C)[C@@H](O)[C@@H](C)[C@H](OC(C)=O)[C@@H]1C` [Rifampin, 2-(4-methyl-1-piperazinyl-iminomethyl)-rifamycin SV], the “Activity against E. coli” value in the experiment with E coli is “no activity”.
Consider `Oc1cc(Cl)ccc1Oc1ccc(Cl)cc1Cl` [Triclosan], for which the MIC (commonly the lowest concentration found to suppress growth) in the experiment on S. aureus (setting [1]) amounted to 125 µg/mL; with S. aureus (S. aureus original inoculum, read-out: MIC of triclosan for inoculum) it was 3.75 µg/mL; in the experiment on E. coli (read-out: MIC of triclosan for inoculum), 16 µg/mL; in the experiment on E. coli (setting [1]) it was 250 µg/mL.
